Test results reported in patent publication US20130165464A1, “HETEROARYLS AND USES THEREOF” (MILLENNIUM PHARMACEUTICALS, INC., priority 2011, published 2013).

Target: T1, VPS34 (Homo sapiens, UniProt Q8NEB9)
T1 construct: GST (N); host or cells: SF9 insect cells (baculovirus)
Assay: Human VPS34 enzyme assay (Adapta TR-FRET)
Type: biochemical
Details: for inhibition at 1.11 µM: 1 h, at a 1.11 μM concentration, read-out: VPS34 Percent Inhibition

T1 sequence (Q8NEB9 whole entry): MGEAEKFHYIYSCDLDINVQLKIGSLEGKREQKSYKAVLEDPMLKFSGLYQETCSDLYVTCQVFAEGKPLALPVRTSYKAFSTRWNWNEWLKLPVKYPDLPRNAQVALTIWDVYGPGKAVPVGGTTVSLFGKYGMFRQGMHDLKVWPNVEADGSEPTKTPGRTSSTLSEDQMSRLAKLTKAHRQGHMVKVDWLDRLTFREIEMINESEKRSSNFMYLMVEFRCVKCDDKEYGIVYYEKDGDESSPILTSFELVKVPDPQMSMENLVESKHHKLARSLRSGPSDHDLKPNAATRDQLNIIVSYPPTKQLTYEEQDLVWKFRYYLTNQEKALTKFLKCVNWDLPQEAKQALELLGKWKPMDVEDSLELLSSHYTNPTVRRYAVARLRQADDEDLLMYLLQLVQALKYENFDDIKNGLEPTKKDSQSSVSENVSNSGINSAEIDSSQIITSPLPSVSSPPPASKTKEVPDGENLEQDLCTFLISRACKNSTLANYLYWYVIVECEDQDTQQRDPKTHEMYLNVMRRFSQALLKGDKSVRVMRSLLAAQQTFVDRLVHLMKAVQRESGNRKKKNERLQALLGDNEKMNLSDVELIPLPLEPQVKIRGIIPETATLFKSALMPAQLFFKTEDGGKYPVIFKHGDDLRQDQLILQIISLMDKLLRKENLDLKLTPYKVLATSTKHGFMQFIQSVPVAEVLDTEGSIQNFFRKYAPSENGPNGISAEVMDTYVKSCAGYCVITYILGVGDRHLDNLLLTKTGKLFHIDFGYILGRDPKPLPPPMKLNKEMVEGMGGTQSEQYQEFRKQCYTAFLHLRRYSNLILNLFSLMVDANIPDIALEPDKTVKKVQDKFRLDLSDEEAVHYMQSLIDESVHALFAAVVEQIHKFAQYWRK

| SMILES | IC50 [nM] | inhibition at 1.11 µM [%] |
| --- | --- | --- |
| CC(=O)Nc1cc(-n2cc(C(N)=O)c(-c3ccccc3Cl)n2)c(C)cn1 [I-11, 1-(2-acetamido-5-methylpyridin-4-yl)-3-(2-chlorophenyl)-1H-pyrazole-4-carboxamide] | 150 to 1000 | 96 |
| CC(=O)Nc1cc(-n2cc(-c3cccc(N)n3)c(-c3ccccc3Cl)n2)c(C)cn1 [I-107, N-{4-[4-(6-aminopyridin-2-yl)-3-(2-chlorophenyl)-1H-pyrazol-1-yl]-5-methylpyridin-2-yl}acetamide] | 150 to 1000 | 54 |
| Cc1cnc(NC(=O)OC2CCCCC2)cc1-n1cc(C(N)=O)c(-c2ccccc2Cl)c1 [I-72, cyclohexyl {4-[3-carbamoyl-4-(2-chlorophenyl)-1H-pyrrol-1-yl]-5-methylpyridin-2-yl}carbamate] | 150 to 1000 | 71 |
| CC(=O)Nc1cc(-n2cc(C(N)=O)c(-c3ccccc3Cl)c2)ccn1 [I-2, 1-(2-acetamidopyridin-4-yl)-4-(2-chlorophenyl)-1H-pyrrole-3-carboxamide] | < 50 | > 99 |
| Cc1cnc(NC(=O)C2CC2)cc1-n1cc(CO)c(-c2ccccc2Cl)n1 [I-63, N-{4-[3-(2-chlorophenyl)-4-(hydroxymethyl)-1H-pyrazol-1-yl]-5-methylpyridin-2-yl}cyclopropanecarboxamide] | 150 to 1000 | 62 |
| CC(=O)Nc1cc(-n2cc(C(N)=O)c(-c3ccccc3Cl)n2)ccn1 [I-8, 1-(2-acetamidopyridin-4-yl)-3-(2-chlorophenyl)-1H-pyrazole-4-carboxamide] |  | > 99 |
| CC(=O)Nc1cc(-n2cc(-c3nc[nH]n3)c(-c3ccc(F)cc3Cl)n2)c(C)cn1 [I-65, N-{4-[3-(2-chloro-4-fluorophenyl)-4-(1H-1,2,4-triazol-3-yl)-1H-pyrazol-1-yl]-5-methylpyridin-2-yl}acetamide] |  | > 99 |
| CC(=O)Nc1cc(-n2cc(-c3ccccc3)c(-c3nnc[nH]3)c2)c(C)cn1 [I-53, N-{5-methyl-4-[3-phenyl-4-(4H-1,2,4-triazol-3-yl)-1H-pyrrol-1-yl]pyridin-2-yl}acetamide] | 150 to 1000 | 81 |
| Cc1cnc(NC(=O)C2CC2)cc1-n1cc(C(N)=O)c(-c2cc(CN3CCCC3)ccc2Cl)c1 [I-71, 4-[2-chloro-5-(pyrrolidin-1-ylmethyl)phenyl]-1-{2-[(cyclopropylcarbonyl)amino]-5-methylpyridin-4-yl}-1H-pyrrole-3-carboxamide] | 150 to 1000 | > 99 |
| COC(=O)Nc1cc(-n2cc(-c3nc[nH]n3)c(-c3ccccc3Cl)n2)c(C)cn1 [I-45, methyl {4-[3-(2-chlorophenyl)-4-(4H-1,2,4-triazol-3-yl)-1H-pyrazol-1-yl]-5-methylpyridin-2-yl}carbamate] |  | > 99 |
| CCC(=O)Nc1cc(-n2cc(-c3nc[nH]n3)c(-c3ccccc3Cl)c2)c(C)cn1 [I-50, N-{4-[3-(2-chlorophenyl)-4-(1H-1,2,4-triazol-3-yl)-1H-pyrrol-1-yl]-5-methylpyridin-2-yl}propanamide] | < 50 | > 99 |
| CC(=O)Nc1cc(-n2cc(C(N)=O)c(-c3ccccc3Cl)c2)c(Cl)cn1 [I-37, 1-(2-acetamido-5-chloropyridin-4-yl)-4-(2-chlorophenyl)-1H-pyrrole-3-carboxamide] | 150 to 1000 | 88 |
| Cc1cnc(NC(=O)C(C)C)cc1-n1cc(-c2nc[nH]n2)c(-c2ccccc2Cl)c1 [I-26, N-{4-[3-(2-chlorophenyl)-4-(1H-1,2,4-triazol-3-yl)-1H-pyrrol-1-yl]-5-methylpyridin-2-yl}-2-methylpropanamide] | 150 to 1000 | 78 |
